Key:
[1] = test system: P815 tumor cells; assay: Suppression effect of tumor growth by immunoadjuvant combination (P815 model); type: in vivo, DBA/2 mice
Text: The following substances were used as adjuvants.
Poly I:C (TLR3 agonist) (Invivogen, SanDiego, USA)
RIBOXXOL (TLR3 agonist) (Riboxx, Radebeul, Germany)
MPL (TLR4 agonist) (Invivogen, SanDiego, USA)
Imiquimod (TLR7/8 agonist) (Invivogen, SanDiego, USA)
CpG (TLR9 agonist) (Invivogen, SanDiego, USA)
LAG-3 (Adipogen, SanDiego, USA)
P815 tumor cells were subcutaneously inoculated to DBA/2 mice in an amount of 5×10^5 cells per mouse to prepare cancer model mice. The day of inoculation was specified as Day 0. On Day 7, PIA CTL (2.5×10^5 cells per mouse) were intravenously injected. Day 8 and Day 15, an admixture of PIA peptide (50 μg per mouse) and an adjuvant in PBS was subcutaneously injected. Mice were divided into 9 groups each consisting of 4 or 5 mice and the following adjuvants were used respectively.
Group 1: PIA peptide alone (control)
(§1) Group 2: Poly IC (50 μg/mouse)
Group 3: Poly IC (50 μg/mouse)+LAG-3 (1 μg/mouse)
Group 4: No PIA peptide, Poly IC (50 μg/mouse)+LAG-3 (1 μg/mouse) alone
Group 5: RIBOXXOL (100 μg/mouse)
Group 6: RIBOXXOL (100 μg/mouse)+LAG-3 (1 μg/mouse)
Group 7: MPL (10 μg/mouse)+LAG-3 (1 μg/mouse)
Group 8: Imiquimod (50 μg/mouse)+LAG-3 (1 μg/mouse)
Group 9: CpG (10 μg/mouse)+LAG-3 (1 μg/mouse)

[2] = test system: B16-F10 melanoma cells; assay: Tumor growth inhibitory effect by combination of immuno-adjuvants, B16-F10 melanoma inoculation model mice; type: in vivo, C57BL/6 mice
Method: To C57BL/6 mice, B16-F10 melanoma cells (1×10^5 cells per mouse) were subcutaneously inoculated to prepare cancer model mice.
The day of inoculation was specified as Day 0. On Day 5 and Day 12, twice in total, an admixture of gp100 peptide (50 μg per mouse) and an adjuvant in PBS was subcutaneously injected. The following adjuvants were used in respective mice groups.
Group 1: IFA (50 μL/mouse)
as §1
Group 3: LAG-3 (1 μg/mouse)
Group 4: LAG-3 (1 μg/mouse)+Poly IC (50 μg/mouse)

[3] = test system: P815 tumor cells; assay: Cancer vaccine: comparison of adjuvants with P1A peptide in P815-grafted DBA/2 mice; type: in vivo; conditions: groups of 5 mice; P1A CTL i.v. Day 8; P1A peptide 50 μg + adjuvant s.c. Day 9 and Day 16
Text: In accordance with the protocol shown in FIG. 1, the effects of adjuvants in cancer vaccines using a cancer-antigen derived peptide were compared.
As cancer model mice, DBA/2 mice, to which P815 cells (DBA/2mouse-derived mouse mastocytoma) were grafted, were put in use.
As a cancer-antigen derived peptide, a peptide (hereinafter referred to as “PIA peptide”) consisting of a partial sequence of PIA protein was used, which is a tumor antigen of P815 tumor and known to be restrictively presented by an MHC H-2Ld. The amino acid sequence of P1A peptide are represented by LPYLGWLVF (SEQ. ID No: 1).
As P1A CTL, a T cell expressing a T cell receptor and recognizing P1A peptide was used. […] Based on the positive ratio, the number of P1A-CTL cells was determined and administered.
As the adjuvants, the following substances were used. • Whole pertussis bacterial cell (PT) (BioFarma, Bandung, Indonesia) • Poly I:C (TLR3 agonist) (Invivogen, SanDiego, USA) • CpG (TLR9 agonist) (Invivogen, SanDiego, USA) • IFA (incomplete Freund's adjuvant) (Seppic, Paris, France) • LAG-3 (Adipogen, SanDiego, USA) Method
P815 tumor cells were subcutaneously inoculated to DBA/2 mice in an amount of 5×10^5 cells per mouse. The day of inoculation was specified as Day 0. On Day 8, P1A CTL (2.5×10^5 cells per mouse) were intravenously injected. […]

| Substance | Day up to which all mice died ([1]; 5 out of 5 mice, PIA peptide without adjuvant) [days] | effect of extending survival time (in words) ([2]; Poly IC and LAG-3 alone compared to IFA group, combination compared to IFA, Poly IC and LAG-3 groups) | Day on which five mice all died ([2]; gp100 peptide 50 μg + adjuvant s.c. Day 5 and Day 12) [days] | mice survived (out of 5) ([1]; with PIA peptide 50 μg s.c. Day 8 and Day 15, time point apparently Day 40) | number of mice survived until Day 70 without increasing tumor size [3] |
| --- | --- | --- | --- | --- | --- |
| LPYLGWLVF (listed as Mus musculus) [PIA peptide alone] | ≤ 40 |  |  |  |  |
| Polyinosinic:polycytidylic acid [Poly IC] |  | a significant effect of extending survival time was not observed | 35 | Four | 1 |

Source: patent publication US11491204B2, “Composition comprising poly I:C and LAG-3-IGG fusion protein” (CYTLIMIC INC., priority 2015, dated 2022)
